Experimental data published in patent US9789096B2, “Methods and compositions for selective and targeted cancer therapy” (Board of Regents of the University of Texas System, priority 2013, dated 2017).

tested on: HBEC30KT; experiment: Cell viability (ATP, Cell Titer Glo, 4 days), HBEC30KT; format: cell-based, human; conditions: Homo sapiens, Tables 3 and 4; read-out: HBEC30KT IC50

Row | SMILES | IC50 [µM]
1 | Cc1cc(C)nc(SCC(=O)Nc2nc3ccccc3s2)n1 [SW053831] | 60
2 | O=C(Nc1ccccc1F)c1sc2ccccc2c1Cl [SW118094] | 34.1
3 | O=C(Nc1ccc(F)c(Cl)c1)c1sc2ccccc2c1Cl [SW118753] | 108
4 | O=C(c1ccc(O)cc1)c1ccc(NC(=O)c2sc3ccccc3c2Cl)cc1 [SW202856-1] | 6.08

same assay, conditions: Tables 3 and 4; read-out: HBEC30KT IC50

Row | SMILES | IC50 [µM]
5 | O=C(Nc1cccc(NC(=O)c2sc3ccccc3c2Cl)c1)c1cccc(Cl)c1 [SW023441] | 30

tested on: H1155; experiment: Cell viability dose-response, H1155; format: cell-based; conditions: Homo sapiens, NCI-H1155; Tables 3 and 4; read-out: IC50 (uM) vs indicated non-small cell lung cancer cell line H1155
Protocol: (§1) FIG. 6A. […] Cell viability is plotted vs. compound concentration. Compound was added to cells plated at 15% confluence in 96-well plates in RPMI-1640 media supplemented with 5% Fetal Bovine Serum and 2 mM L-Glutamine. After 4 days of incubation, ATP levels were measured using Cell Titer Glo (Promega). Data are presented as the average of 2 replicates ±SEM.
(§2) Selectivity may be measured by the half maximal inhibitory concentration (IC50), which, as used herein, is a measure of the effectiveness of a compound in killing cells. This quantitative measure indicates how much of a particular compound is needed to kill a particular cell population by half (e.g., as indicated by the amount of ATP). […] The IC50 can be determined by constructing a dose-response curve. The lower the IC50, the higher the potency, and the greater the difference between IC50 values for different cell lines (e.g., sensitive lines vs. insensitive lines, and sensitive lines vs. normal lines) the greater the selectivity. […]
(§3) With this information, we synthesized and tested a series of small molecules derived in conception from the oxalamide and chromone scaffold including N-acyl ureas, as shown in Tables 6-8. Each compound was tested in a 12-point dose-response study starting at 50 micromolar and decreasing in 3-fold increments to sub-nanomolar concentrations, in duplicate. Additionally, one or more additional cell line was tested in the same way.

Row | SMILES | IC50 [µM]
6 | O=C(Nc1cccc(NC(=O)c2sc3ccccc3c2Cl)c1)c1cccc(Cl)c1 [SW023441] | 29
7 | Cc1cc(C)nc(SCC(=O)Nc2nc3ccccc3s2)n1 [SW053831] | 43
8 | O=C(Nc1ccc(F)c(Cl)c1)c1sc2ccccc2c1Cl [SW118753] | 105
9 | O=C(Nc1nnc(C2CCCCC2)s1)c1sc2ccccc2c1Cl [SW173997] | 23.8
10 | O=C(c1ccc(O)cc1)c1ccc(NC(=O)c2sc3ccccc3c2Cl)cc1 [SW202856-1] | 20.4
11 | O=C(Nc1nc2ccc(O)cc2s1)c1c(F)ccc(O)c1F [SW202860-1] | 49.2

tested on: H1395; experiment: Cell viability dose-response, H1395; format: cell-based; conditions: Homo sapiens, NCI-H1395; Tables 3 and 4; read-out: IC50 (uM) vs indicated non-small cell lung cancer cell line H1395
Protocol: as §1, §2, §3

Row | SMILES | IC50 [µM]
12 | O=C(Nc1cccc(NC(=O)c2sc3ccccc3c2Cl)c1)c1cccc(Cl)c1 [SW023441] | 10.5
13 | Cc1cc(C)nc(SCC(=O)Nc2nc3ccccc3s2)n1 [SW053831] | 65
14 | O=C(Nc1ccc(F)c(Cl)c1)c1sc2ccccc2c1Cl [SW118753] | 600
15 | O=C(Nc1nnc(C2CCCCC2)s1)c1sc2ccccc2c1Cl [SW173997] | 41.3

tested on: H1819; experiment: Cell viability dose-response, H1819; format: cell-based, human; conditions: Homo sapiens, NCI-H1819, Tables 3 and 4; read-out: IC50 (uM) vs indicated non-small cell lung cancer cell line H1819
In short: (§4)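 Viability read as total ATP (Cell Titer Glo) following 4 days' compound exposure, with IC50 derived from dose-response curves. Duplicate 12-point series, top concentration 50 micromolar with 3-fold steps, on cells seeded at 15% confluence in RPMI-1640, 5% FBS, 2 mM L-glutamine.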

Row | SMILES | IC50 [µM]
16 | O=C(Nc1cccc(NC(=O)c2sc3ccccc3c2Cl)c1)c1cccc(Cl)c1 [SW023441] | 16.4
17 | Cc1cc(C)nc(SCC(=O)Nc2nc3ccccc3s2)n1 [SW053831] | 63
18 | O=C(Nc1ccccc1F)c1sc2ccccc2c1Cl [SW118094] | 1.21
19 | O=C(Nc1ccc(F)c(Cl)c1)c1sc2ccccc2c1Cl [SW118753] | 38
20 | O=C(Nc1nnc(C2CCCCC2)s1)c1sc2ccccc2c1Cl [SW173997] | 48.5
21 | O=C(c1ccc(O)cc1)c1ccc(NC(=O)c2sc3ccccc3c2Cl)cc1 [SW202856-1] | 40.2

tested on: H1993; experiment: Cell viability dose-response, H1993; format: cell-based; conditions: Homo sapiens, NCI-H1993; Tables 3 and 4; read-out: IC50 (uM) vs indicated non-small cell lung cancer cell line H1993
Protocol: as §1, §2, §3

Row | SMILES | IC50 [µM]
22 | O=C(Nc1cccc(NC(=O)c2sc3ccccc3c2Cl)c1)c1cccc(Cl)c1 [SW023441] | 11
23 | Cc1cc(C)nc(SCC(=O)Nc2nc3ccccc3s2)n1 [SW053831] | 29
24 | O=C(Nc1ccc(F)c(Cl)c1)c1sc2ccccc2c1Cl [SW118753] | 73
25 | O=C(Nc1nnc(C2CCCCC2)s1)c1sc2ccccc2c1Cl [SW173997] | 16.9
26 | O=C(c1ccc(O)cc1)c1ccc(NC(=O)c2sc3ccccc3c2Cl)cc1 [SW202856-1] | 13.6
27 | O=C(Nc1nc2ccc(O)cc2s1)c1c(F)ccc(O)c1F [SW202860-1] | 35.6

tested on: H2009; experiment: Cell viability dose-response, H2009; format: cell-based, human; conditions: Homo sapiens, NCI-H2009; Tables 3 and 4; read-out: IC50 (uM) vs indicated non-small cell lung cancer cell line H2009
In short: (§5)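 Read-out is total cellular ATP, measured with CellTiter-Glo after four days of compound treatment. Cells start at 15% confluence in RPMI-1640 containing 5% FBS and 2 mM L-glutamine. Each point averages two replicates (±SEM).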

Row | SMILES | IC50 [µM]
28 | O=C(Nc1cccc(NC(=O)c2sc3ccccc3c2Cl)c1)c1cccc(Cl)c1 [SW023441] | 9.4
29 | Cc1cc(C)nc(SCC(=O)Nc2nc3ccccc3s2)n1 [SW053831] | 104
30 | O=C(Nc1ccc(F)c(Cl)c1)c1sc2ccccc2c1Cl [SW118753] | 65
31 | O=C(Nc1nnc(C2CCCCC2)s1)c1sc2ccccc2c1Cl [SW173997] | 21.5
32 | O=C(c1ccc(O)cc1)c1ccc(NC(=O)c2sc3ccccc3c2Cl)cc1 [SW202856-1] | 4.76
33 | O=C(Nc1nc2ccc(O)cc2s1)c1c(F)ccc(O)c1F [SW202860-1] | 41.7

tested on: H2073; experiment: Cell viability dose-response, H2073; format: cell-based, human; conditions: Homo sapiens, NCI-H2073, Tables 3 and 4; read-out: IC50 (uM) vs indicated non-small cell lung cancer cell line H2073
In short: as §5

Row | SMILES | IC50 [µM]
34 | O=C(Nc1cccc(NC(=O)c2sc3ccccc3c2Cl)c1)c1cccc(Cl)c1 [SW023441] | 6.2
35 | Cc1cc(C)nc(SCC(=O)Nc2nc3ccccc3s2)n1 [SW053831] | 0.85
36 | O=C(Nc1ccc(F)c(Cl)c1)c1sc2ccccc2c1Cl [SW118753] | 0.9
37 | O=C(Nc1nnc(C2CCCCC2)s1)c1sc2ccccc2c1Cl [SW173997] | 11.4
38 | O=C(c1ccc(O)cc1)c1ccc(NC(=O)c2sc3ccccc3c2Cl)cc1 [SW202856-1] | 48.4
39 | O=C(Nc1nc2ccc(O)cc2s1)c1c(F)ccc(O)c1F [SW202860-1] | 18.1

tested on: H2122; experiment: Cell viability dose-response, H2122; format: cell-based, human; conditions: Homo sapiens, NCI-H2122, Tables 3 and 4; read-out: IC50 (uM) vs indicated non-small cell lung cancer cell line H2122
In short: as §4

Row | SMILES | IC50 [µM]
40 | O=C(Nc1cccc(NC(=O)c2sc3ccccc3c2Cl)c1)c1cccc(Cl)c1 [SW023441] | 0.39
41 | Cc1cc(C)nc(SCC(=O)Nc2nc3ccccc3s2)n1 [SW053831] | 47
42 | O=C(Nc1ccccc1F)c1sc2ccccc2c1Cl [SW118094] | 1.05
43 | O=C(Nc1ccc(F)c(Cl)c1)c1sc2ccccc2c1Cl [SW118753] | 0.8
44 | O=C(Nc1nnc(C2CCCCC2)s1)c1sc2ccccc2c1Cl [SW173997] | 0.27
45 | O=C(c1ccc(O)cc1)c1ccc(NC(=O)c2sc3ccccc3c2Cl)cc1 [SW202856-1] | 33.8
46 | O=C(Nc1nc2ccc(O)cc2s1)c1c(F)ccc(O)c1F [SW202860-1] | 4.05

tested on: H460; experiment: Cell viability dose-response, H460; format: cell-based; conditions: Homo sapiens, NCI-H460; Tables 3 and 4; read-out: IC50 (uM) vs indicated non-small cell lung cancer cell line H460
Protocol: as §1, §2, §3

Row | SMILES | IC50 [µM]
47 | O=C(Nc1cccc(NC(=O)c2sc3ccccc3c2Cl)c1)c1cccc(Cl)c1 [SW023441] | 48
48 | O=C(Nc1ccccc1F)c1sc2ccccc2c1Cl [SW118094] | 0.606
49 | O=C(Nc1nnc(C2CCCCC2)s1)c1sc2ccccc2c1Cl [SW173997] | 44.5
50 | O=C(c1ccc(O)cc1)c1ccc(NC(=O)c2sc3ccccc3c2Cl)cc1 [SW202856-1] | 44.5
51 | O=C(Nc1nc2ccc(O)cc2s1)c1c(F)ccc(O)c1F [SW202860-1] | 47.8

tested on: HCC366; experiment: Cell viability dose-response, HCC366; format: cell-based; conditions: Homo sapiens, Tables 3 and 4, read-out: IC50 (uM) vs indicated non-small cell lung cancer cell line HCC366
Protocol: as §1, §2, §3

Row | SMILES | IC50 [µM]
52 | O=C(Nc1cccc(NC(=O)c2sc3ccccc3c2Cl)c1)c1cccc(Cl)c1 [SW023441] | 23
53 | Cc1cc(C)nc(SCC(=O)Nc2nc3ccccc3s2)n1 [SW053831] | 80
54 | O=C(Nc1ccccc1F)c1sc2ccccc2c1Cl [SW118094] | 124
55 | O=C(Nc1ccc(F)c(Cl)c1)c1sc2ccccc2c1Cl [SW118753] | 375
56 | O=C(Nc1nnc(C2CCCCC2)s1)c1sc2ccccc2c1Cl [SW173997] | 40.9
57 | O=C(c1ccc(O)cc1)c1ccc(NC(=O)c2sc3ccccc3c2Cl)cc1 [SW202856-1] | 40.6
58 | O=C(Nc1nc2ccc(O)cc2s1)c1c(F)ccc(O)c1F [SW202860-1] | 42.6

tested on: HCC4017; experiment: Cell viability dose-response, HCC4017; format: cell-based, human; conditions: Homo sapiens, HCC4017, Tables 3 and 4; read-out: IC50 (uM) vs indicated non-small cell lung cancer cell line HCC4017
Protocol: as §1, §2, §3

Row | SMILES | IC50 [µM]
59 | Cc1cc(C)nc(SCC(=O)Nc2nc3ccccc3s2)n1 [SW053831] | 98
60 | O=C(Nc1ccccc1F)c1sc2ccccc2c1Cl [SW118094] | 0.322
61 | O=C(Nc1ccc(F)c(Cl)c1)c1sc2ccccc2c1Cl [SW118753] | 700
62 | O=C(Nc1nnc(C2CCCCC2)s1)c1sc2ccccc2c1Cl [SW173997] | 24
63 | O=C(c1ccc(O)cc1)c1ccc(NC(=O)c2sc3ccccc3c2Cl)cc1 [SW202856-1] | 13.3
64 | O=C(Nc1nc2ccc(O)cc2s1)c1c(F)ccc(O)c1F [SW202860-1] | 47.5

same assay, conditions: Tables 3 and 4; read-out: IC50 (uM) vs indicated non-small cell lung cancer cell line HCC4017

Row | SMILES | IC50 [µM]
65 | O=C(Nc1cccc(NC(=O)c2sc3ccccc3c2Cl)c1)c1cccc(Cl)c1 [SW023441] | 18

tested on: HCC44; experiment: Cell viability dose-response, HCC44; format: cell-based, human; conditions: Homo sapiens, HCC44, Tables 3 and 4; read-out: IC50 (uM) vs indicated non-small cell lung cancer cell line HCC44
In short: as §5

Row | SMILES | IC50 [µM]
66 | O=C(Nc1cccc(NC(=O)c2sc3ccccc3c2Cl)c1)c1cccc(Cl)c1 [SW023441] | 32
67 | Cc1cc(C)nc(SCC(=O)Nc2nc3ccccc3s2)n1 [SW053831] | 33
68 | O=C(Nc1ccccc1F)c1sc2ccccc2c1Cl [SW118094] | 0.09
69 | O=C(Nc1ccc(F)c(Cl)c1)c1sc2ccccc2c1Cl [SW118753] | 265
70 | O=C(Nc1nnc(C2CCCCC2)s1)c1sc2ccccc2c1Cl [SW173997] | 23.1
71 | O=C(c1ccc(O)cc1)c1ccc(NC(=O)c2sc3ccccc3c2Cl)cc1 [SW202856-1] | 1.06
72 | O=C(Nc1nc2ccc(O)cc2s1)c1c(F)ccc(O)c1F [SW202860-1] | 15.1

tested on: HCC95; experiment: Cell viability dose-response, HCC95; format: cell-based; conditions: Homo sapiens, Tables 3 and 4, read-out: IC50 (uM) vs indicated non-small cell lung cancer cell line HCC95
Protocol: as §1, §2, §3

Row | SMILES | IC50 [µM]
73 | O=C(Nc1cccc(NC(=O)c2sc3ccccc3c2Cl)c1)c1cccc(Cl)c1 [SW023441] | 14
74 | Cc1cc(C)nc(SCC(=O)Nc2nc3ccccc3s2)n1 [SW053831] | 85
75 | O=C(Nc1ccc(F)c(Cl)c1)c1sc2ccccc2c1Cl [SW118753] | 300
76 | O=C(Nc1nnc(C2CCCCC2)s1)c1sc2ccccc2c1Cl [SW173997] | 23.8
77 | O=C(c1ccc(O)cc1)c1ccc(NC(=O)c2sc3ccccc3c2Cl)cc1 [SW202856-1] | 12.8
78 | O=C(Nc1nc2ccc(O)cc2s1)c1c(F)ccc(O)c1F [SW202860-1] | 44.9
